# Test results as given in patent US5061794A, “Cephalosporin derivatives, and antibacterial agents” (priority 1986, dated 1991).
# Like-named read-outs stand apart in the source and are kept apart here.
# Key:
# [1] = system: E. coli CSH(RE45); assay: microbe, parasite or virus in culture; format: cell-based; details: Escherichia coli, 16 h, read-out: Minimum Inhibitory Concentration (MIC), *E. coli CSH(RE45), lactamase-producing strain; 10^6 CFU/ml
# Outline: (§1)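 MICs (μg/ml) were read after 16 hours at 37°C. Test strains, grown overnight in Mueller Hinton broth, were spotted at 10^6 CFU/ml onto Mueller Hinton agar plates containing the compounds at a range of concentrations.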
# [2] = system: E. coli CSH2 (RK1); assay: microbe, parasite or virus in culture; format: cell-based; details: Escherichia coli, 16 h, read-out: Minimum Inhibitory Concentration (MIC), *E. coli CSH2 (RK1), lactamase-producing strain; 10^6 CFU/ml
# Outline: as §1
# [3] = system: E. cloacae 963; assay: in vitro antibacterial activity, agar plate dilution method (MIC); format: cell-based; details: 10^6 CFU/ml
# Outline: as §1
# [4] = system: E. cloacae Nek 39; assay: as above; format: cell-based; details: Enterobacter cloacae, NEK39, 16 h, read-out: Minimum Inhibitory Concentration (MIC), *E. cloacae Nek 39, lactamase-producing strain; 10^6 CFU/ml
# Outline: as §1
# [5] = system: E. coli GN5482; assay: as above; format: cell-based; details: Escherichia coli, GN5482, 16 h, read-out: Minimum Inhibitory Concentration (MIC)
# Outline: as §1
# [6] = system: E. coli NIHJ JC2; assay: as above; format: cell-based; details: Escherichia coli, NIHJJC2, 16 h, read-out: Minimum Inhibitory Concentration (MIC), E. coli NIHJ JC2, 10^6 CFU/ml, 37° C.
# Outline: as §1
# [7] = system: K. oxytoca GN10650; assay: as above; format: cell-based; details: Klebsiella oxytoca, GN10650, 16 h, read-out: Minimum Inhibitory Concentration (MIC), *K. oxytoca GN10650, lactamase-producing strain; 10^6 CFU/ml
# Outline: as §1
# [8] = system: K. pneumoniae No. 42; assay: as above; format: cell-based; details: Klebsiella pneumoniae, NO.42, 16 h, read-out: Minimum Inhibitory Concentration (MIC), *K. pneumoniae No. 42, lactamase-producing strain; 10^6 CFU/ml
# Outline: as §1
# [9] = system: K. pneumoniae PCI-602; assay: as above; format: cell-based; details: Klebsiella pneumoniae, PCI602, 16 h, read-out: Minimum Inhibitory Concentration (MIC), K. pneumoniae PCI-602; 10^6 CFU/ml
# Outline: as §1
# [10] = system: M. morganii GN5407; assay: as above; format: cell-based; details: Morganella morganii, GN5407, 16 h, read-out: Minimum Inhibitory Concentration (MIC), *M. morganii GN5407, lactamase-producing strain; 10^6 CFU/ml
# Outline: as §1
# [11] = system: P. vulgaris HX-19; assay: as above; format: cell-based; details: Proteus vulgaris, HX19, 16 h, read-out: Minimum Inhibitory Concentration (MIC)
# Outline: as §1
# [12] = system: P. vulgaris No. 33; assay: as above; format: cell-based; details: Proteus vulgaris, NO.33, 16 h, read-out: Minimum Inhibitory Concentration (MIC), *P. vulgaris No. 33, lactamase-producing strain; 10^6 CFU/ml
# Outline: as §1
# [13] = system: S. aureus 209P NIHJ-JC1; assay: as above; format: cell-based; details: Staphylococcus aureus, 16 h, read-out: Minimum Inhibitory Concentration (MIC)
# Outline: as §1
# [14] = system: S. marcescens IAM 1184; assay: as above; format: cell-based; details: Serratia marcescens, IAM1184, 16 h, S. marcescens IAM 1184; 10^6 CFU/ml; read-out: Minimum Inhibitory Concentration (MIC)
# Outline: as §1
# [15] = system: S. marcescens No. 16-2; assay: as above; format: cell-based; details: Serratia marcescens, NO.162, 16 h, read-out: Minimum Inhibitory Concentration (MIC), *S. marcescens No. 16-2, lactamase-producing strain; 10^6 CFU/ml
# Outline: as §1
# [16] = system: Ps. aeruginosa AK 109; assay: as above; format: cell-based, Pseudomonas aeruginosa; details: Pseudomonas aeruginosa, AK109, 16 h, read-out: Minimum Inhibitory Concentration (MIC)
# Outline: as §1
# [17] = system: Ps. aeruginosa AKR17; assay: as above; format: cell-based, Pseudomonas aeruginosa; details: Pseudomonas aeruginosa, AKR17, 16 h, read-out: Minimum Inhibitory Concentration (MIC), Ps. aeruginosa AKR17; 10^6 CFU/ml
# Outline: as §1
# [18] = system: Ps. aeruginosa IF03445; assay: as above; format: cell-based, Pseudomonas aeruginosa; details: Pseudomonas aeruginosa, IF03445, 16 h, read-out: Minimum Inhibitory Concentration (MIC), Ps. aeruginosa IF03445; 10^6 CFU/ml
# Outline: as §1
# [19] = system: Ps. cepacia 23; assay: as above; format: cell-based, Pseudomonas cepacia; details: Burkholderia cepacia, 16 h; Ps. cepacia 23; 10^6 CFU/ml; read-out: Minimum Inhibitory Concentration (MIC)
# Outline: as §1
# [20] = system: A. calcoaceticus No. 4; assay: as above; format: cell-based, Acinetobacter calcoaceticus; details: Acinetobacter calcoaceticus, NO.4, 16 h, A. calcoaceticus No. 4; 10^6 CFU/ml; read-out: Minimum Inhibitory Concentration (MIC)
# Outline: as §1
# [21] = system: Enterobacter cloacae GN 5797; assay: β-lactamase inducibility; format: cell-based; details: antibiotic at 50, 10 and 1 μg/ml; cephaloridine as substrate
# Method: The assay method for induction of β-lactamase by β-latam antibiotics was as follows:
# The test organism, Enterobacter cloacae GN 5797, was grown overnight in Mueller Hinton broth (Dlfco Laboratories, Detroit, Mich.) at 37° C. The culture was diluted 10-fold into 20 ml of the flesh medium and incubated with shaking at 37° C. After 2 hours of incubation, antibiotics were added to final concentrations of 50 μg/ml, 10 μg/ml and 1 μg/ml, and the incubation was continued. At 1 hour intervals after the addition of antibiotic, 3 ml of sample was taken, and immediately added with 0.1 ml of 50 mM sodium azide. The cells were harvested and washed with 50 mM phosphate buffer (ph 7.0). The cells were suspended in 5 ml of 50 mM phosphate buffer and disrupted with a sonicater in an ice-water bath. The broken cells were centrifuged at 16,500 G for 40 minutes at 4° C., and the resulting supernatant fluid was used as the crude enzyme. β-Lactamase activity was determined by a sopectrophotometric method (Antmicrob. Agents Chemother. 17, 355-358, 1980) with cephaloridine as substrate. The concentration of protein was determined by the method of Lowry (J. Biol. Chem. 193, 265-275, 1951). […] As a representative example, the compound of EXAMPLE 50 was administered to mice by means of subcutaneous administration, and the concentration in the blood was measured.
SMILES,MIC [1] [µg/mL],MIC [2] [µg/mL],MIC [4] [µg/mL],MIC [5] [µg/mL],MIC [6] [µg/mL],MIC [7] [µg/mL],MIC [8] [µg/mL],MIC [9] [µg/mL],MIC [10] [µg/mL],MIC [11] [µg/mL],MIC [12] [µg/mL],MIC [14] [µg/mL],MIC [15] [µg/mL],MIC [16] [µg/mL],MIC [17] [µg/mL],MIC [18] [µg/mL],MIC [19] [µg/mL],MIC [20] [µg/mL],β-lactamase inducibility [21],other results
"CC(C)(ON=C(C(=O)NC1C(=O)N2C(C(=O)O)=C(CSc3nc(-c4ccc(O)c(O)c4)cs3)CSC12)c1csc(N)n1)C(=O)O (stereo not drawn) [Ex. 44, disodium 7β-[2-(2-aminothiazol-4-yl)-2-(1-carboxylate-1-methylethoxyimino)acetamido]-3-[4-(3,4-dihydroxyphenyl)thiazol-2-yl]thiomethyl-3-cephem-4-carboxylate]",0.0125,0.0125,0.1,0.39,0.2,0.025,0.1,< 0.006,0.05,0.0125,0.025,0.05,1.56,0.39,1.56,0.39,< 0.006,0.2,no substantial β-lactamase-inducing activity was observed,"MIC ([3]; Enterobacter cloacae, 16 h, E. cloacae 963, read-out: Minimum Inhibitory Concentration (MIC)): 0.1 µg/mL; MIC [13]: 12.5 µg/mL"
"CC(C)(O/N=C(\C(=O)N[C@@H]1C(=O)N2C(C(=O)O)=C(CSc3ncc(-c4ccc(O)c(O)c4)o3)CS[C@H]12)c1csc(N)n1)C(=O)O [Ex. 64, disodium 7β-[2-(2-aminothiazol-4-yl)-2-(1-carboxylate-1-methylethoxyimino)acetamido]-3-[5-(3,4-dihydroxyphenyl)oxazol-2-yl]thiomethyl-3-cephem-4-carboxylate]",0.025,0.0125,0.2,3.12,0.78,0.1,0.05,0.0125,0.1,0.0125,0.025,0.1,1.56,0.39,1.56,0.78,< 0.006,0.2,no substantial β-lactamase-inducing activity was observed,"MIC ([3]; Enterobacter cloacae, 963, 16 h, read-out: Minimum Inhibitory Concentration (MIC), E. cloacae 963): 0.39 µg/mL; MIC ([13]; S. aureus 209P NIHJ-JC1, 10^6 CFU/ml, 37° C., 16 hours): 25 µg/mL"
